From patent US11713344B2 (DONG-A ST CO., LTD., priority 2017, dated 2023)
pEC50: −log10 of the molar value.

Legend:
[1] = target: Human glucagon receptors (Homo sapiens, UniProt P47871); experiment: Glucagon receptor activation assay (CRE-luciferase reporter, CHO-K1)
[2] = target: Human GLP-1 receptors (Homo sapiens, UniProt P43220); experiment: GLP-1 receptor activation assay (CRE-luciferase reporter, CHO-K1)
Human GLP-1 receptors, sequence (P43220 24-463): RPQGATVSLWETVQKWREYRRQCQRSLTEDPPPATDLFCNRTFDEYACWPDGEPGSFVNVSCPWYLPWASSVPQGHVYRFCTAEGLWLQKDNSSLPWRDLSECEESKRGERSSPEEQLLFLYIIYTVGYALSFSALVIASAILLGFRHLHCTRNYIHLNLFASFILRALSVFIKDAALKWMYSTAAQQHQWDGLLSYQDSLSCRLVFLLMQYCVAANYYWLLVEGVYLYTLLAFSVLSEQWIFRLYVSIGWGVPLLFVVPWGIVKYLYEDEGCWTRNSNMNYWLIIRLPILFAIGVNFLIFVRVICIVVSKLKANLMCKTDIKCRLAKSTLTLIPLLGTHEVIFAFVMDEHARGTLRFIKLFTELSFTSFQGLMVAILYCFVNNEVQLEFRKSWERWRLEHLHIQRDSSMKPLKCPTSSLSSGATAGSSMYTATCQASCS

Human glucagon receptors, sequence (P47871 26-477): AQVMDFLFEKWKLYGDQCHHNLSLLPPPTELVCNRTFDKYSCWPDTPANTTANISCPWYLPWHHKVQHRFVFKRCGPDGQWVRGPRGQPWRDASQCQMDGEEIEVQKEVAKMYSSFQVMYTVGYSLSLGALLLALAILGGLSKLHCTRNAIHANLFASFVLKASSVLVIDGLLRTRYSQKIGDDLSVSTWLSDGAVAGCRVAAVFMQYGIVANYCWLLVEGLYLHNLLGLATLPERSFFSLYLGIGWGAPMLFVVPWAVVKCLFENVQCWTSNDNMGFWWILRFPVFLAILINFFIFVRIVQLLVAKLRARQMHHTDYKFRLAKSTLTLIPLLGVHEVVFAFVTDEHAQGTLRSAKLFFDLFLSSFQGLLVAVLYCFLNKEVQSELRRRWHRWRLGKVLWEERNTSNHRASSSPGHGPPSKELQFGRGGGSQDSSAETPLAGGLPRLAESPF

Row | SMILES | pEC50 [1] | pEC50 [2]
1 | CSCC[C@H](NC(=O)[C@H](CC(C)C)NC(=O)[C@H](Cc1c[nH]c2ccccc12)NC(=O)[C@H](CCC(N)=O)NC(=O)[C@@H](NC(=O)[C@H](Cc1ccccc1)NC(=O)[C@H](CCC(=O)O)NC(=O)[C@@H]1CCCCNC(=O)CC[C@H](NC(=O)[C@H](CC(=O)O)NC(=O)[C@H](CC(C)C)NC(=O)[C@H](Cc2ccc(O)cc2)NC(=O)[C@H](CCCCN)NC(=O)[C@H](CO)NC(=O)[C@H](Cc2ccc(O)cc2)NC(=O)[C@H](CC(=O)O)NC(=O)[C@H](CO)NC(=O)[C@@H](NC(=O)[C@H](Cc2ccccc2)NC(=O)[C@@H](NC(=O)CNC(=O)[C@H](CCC(N)=O)NC(=O)C(C)(C)NC(=O)[C@@H](N)Cc2c[nH]cn2)[C@@H](C)O)[C@@H](C)O)C(=O)N[C@@H](CCCCN)C(=O)N[C@@H](CCCNC(=N)N)C(=O)N[C@@H](C)C(=O)N1)C(C)C)C(=O)N[C@@H](CC(N)=O)C(=O)N[C@H](C(=O)N[C@@H](CCCCN)C(=O)N[C@@H](CS)C(=O)O)[C@@H](C)O [Compound 47, reference compound] | 10.00 to 11.00 | > 11.00
2 | CCCCCCCCCCCCCCCCCC(=O)N[C@@H](CCC(=O)NCC(=O)N[C@@H](CO)C(=O)NCC(=O)N[C@@H](CO)C(=O)NCC(=O)NCC(=O)NCCCC[C@H](NC(=O)[C@H](CC(=O)O)NC(=O)[C@H](CO)NC(=O)[C@@H](NC(=O)[C@H](Cc1ccccc1)NC(=O)[C@@H](NC(=O)CNC(=O)[C@H](CCC(N)=O)NC(=O)C(C)(C)NC(=O)[C@@H](N)Cc1c[nH]cn1)[C@@H](C)O)[C@@H](C)O)C(=O)N[C@@H](CO)C(=O)N[C@@H](CCCCN)C(=O)N[C@@H](Cc1ccc(O)cc1)C(=O)N[C@@H](CC(C)C)C(=O)N[C@@H](CC(=O)O)C(=O)NC(C)(C)C(=O)N[C@@H](CCCNC(=N)N)C(=O)N[C@@H](CCCNC(=N)N)C(=O)N[C@@H](C)C(=O)N[C@@H](CCC(N)=O)C(=O)N[C@@H](CC(=O)O)C(=O)N[C@@H](Cc1ccccc1)C(=O)N[C@H](C(=O)N[C@@H](CCC(N)=O)C(=O)N[C@@H](Cc1c[nH]c2ccccc12)C(=O)N[C@@H](CC(C)C)C(=O)N[C@@H](CCSC)C(=O)N[C@@H](CC(N)=O)C(=O)N[C@H](C(=O)N[C@@H](CCCCN)C(=O)O)[C@@H](C)O)C(C)C)C(=O)O [Compound 11] | 10.00 to 11.00 | > 11.00
3 | CCCCCCCCCCCCCCCCCC(=O)N[C@@H](CCC(=O)NCCOCCOCC(=O)NCCOCCOCC(=O)NCCCC[C@H](NC(=O)[C@H](CC(=O)O)NC(=O)[C@H](CO)NC(=O)[C@@H](NC(=O)[C@H](Cc1ccccc1)NC(=O)[C@@H](NC(=O)CNC(=O)[C@H](CCC(N)=O)NC(=O)C(C)(C)NC(=O)[C@@H](N)Cc1c[nH]cn1)[C@@H](C)O)[C@@H](C)O)C(=O)N[C@@H](CO)C(=O)N[C@@H](CCCCN)C(=O)N[C@@H](Cc1ccc(O)cc1)C(=O)N[C@@H](CC(C)C)C(=O)N[C@@H](CC(=O)O)C(=O)NC(C)(C)C(=O)N[C@@H](CCCNC(=N)N)C(=O)N[C@@H](CCCNC(=N)N)C(=O)N[C@@H](C)C(=O)N[C@@H](CCC(N)=O)C(=O)N[C@@H](CC(=O)O)C(=O)N[C@@H](Cc1ccccc1)C(=O)N[C@H](C(=O)N[C@@H](CCC(N)=O)C(=O)N[C@@H](Cc1c[nH]c2ccccc12)C(=O)N[C@@H](CC(C)C)C(=O)N[C@@H](CCSC)C(=O)N[C@@H](CC(N)=O)C(=O)N[C@H](C(=O)N[C@@H](CCCCN)C(=O)O)[C@@H](C)O)C(C)C)C(=O)O [Compound 3] | > 11.00 | > 11.00
4 | CSCC[C@H](NC(=O)[C@H](CC(C)C)NC(=O)[C@H](Cc1c[nH]c2ccccc12)NC(=O)[C@H](CCC(N)=O)NC(=O)[C@@H](NC(=O)[C@H](Cc1ccccc1)NC(=O)[C@H](CC(=O)O)NC(=O)[C@H](CCC(N)=O)NC(=O)[C@H](C)NC(=O)[C@H](CCCNC(=N)N)NC(=O)[C@H](CCCNC(=N)N)NC(=O)C(C)(C)NC(=O)[C@H](CC(=O)O)NC(=O)[C@H](CC(C)C)NC(=O)[C@H](Cc1ccc(O)cc1)NC(=O)[C@H](CCCCN)NC(=O)[C@H](CO)NC(=O)[C@H](CCCCN)NC(=O)[C@H](CC(=O)O)NC(=O)[C@H](CO)NC(=O)[C@@H](NC(=O)[C@H](Cc1ccccc1)NC(=O)[C@@H](NC(=O)CNC(=O)[C@H](CCC(N)=O)NC(=O)C(C)(C)NC(=O)[C@@H](N)Cc1c[nH]cn1)[C@@H](C)O)[C@@H](C)O)C(C)C)C(=O)N[C@@H](CC(N)=O)C(=O)N[C@H](C(=O)N[C@@H](CCCCN)C(=O)O)[C@@H](C)O [Compound 39] | < 9.00 | < 9.00

Now from value to compound:

Row | pEC50 [1] | pEC50 [2] | SMILES
5 | > 11.00 | > 11.00 | CCCCCCCCCCCCCCCCCC(=O)N[C@@H](CCC(=O)N[C@@H](CCC(=O)NCCOCCOCC(=O)NCCOCCOCC(=O)NCCCC[C@H](NC(=O)[C@H](CC(=O)O)NC(=O)[C@H](CO)NC(=O)[C@@H](NC(=O)[C@H](Cc1ccccc1)NC(=O)[C@@H](NC(=O)CNC(=O)[C@H](CCC(N)=O)NC(=O)C(C)(C)NC(=O)[C@@H](N)Cc1c[nH]cn1)[C@@H](C)O)[C@@H](C)O)C(=O)N[C@@H](CO)C(=O)N[C@@H](CCCCN)C(=O)N[C@@H](Cc1ccc(O)cc1)C(=O)N[C@@H](CC(C)C)C(=O)N[C@@H](CC(=O)O)C(=O)NC(C)(C)C(=O)N[C@@H](CCCNC(=N)N)C(=O)N[C@@H](CCCNC(=N)N)C(=O)N[C@@H](C)C(=O)N[C@@H](CCC(N)=O)C(=O)N[C@@H](CC(=O)O)C(=O)N[C@@H](Cc1ccccc1)C(=O)N[C@H](C(=O)N[C@@H](CCC(N)=O)C(=O)N[C@@H](Cc1c[nH]c2ccccc12)C(=O)N[C@@H](CC(C)C)C(=O)N[C@@H](CCSC)C(=O)N[C@@H](CC(N)=O)C(=O)N[C@H](C(=O)N[C@@H](CCCCN)C(=O)O)[C@@H](C)O)C(C)C)C(=O)O)C(=O)O [Compound 9]
6 | > 11.00 | > 11.00 | CCCCCCCCCCCCCCCCCC(=O)N[C@@H](CCC(=O)NCCOCCOCC(=O)NCCOCCOCC(=O)NCCCC[C@H](NC(=O)[C@H](CC(=O)O)NC(=O)[C@H](CO)NC(=O)[C@@H](NC(=O)[C@H](Cc1ccccc1)NC(=O)[C@@H](NC(=O)CNC(=O)[C@H](CCC(N)=O)NC(=O)C(C)(C)NC(=O)[C@@H](N)Cc1c[nH]cn1)[C@@H](C)O)[C@@H](C)O)C(=O)N[C@@H](CO)C(=O)N[C@@H](CCCCN)C(=O)N[C@@H](Cc1ccc(O)cc1)C(=O)N[C@@H](CC(C)C)C(=O)N[C@@H](CC(=O)O)C(=O)N[C@H]1CCCCNC(=O)C[C@@H](C(=O)N[C@@H](CC(=O)O)C(=O)N[C@@H](Cc2ccccc2)C(=O)N[C@H](C(=O)N[C@@H](CCC(N)=O)C(=O)N[C@@H](Cc2c[nH]c3ccccc23)C(=O)N[C@@H](CC(C)C)C(=O)N[C@@H](CCSC)C(=O)N[C@@H](CC(N)=O)C(=O)N[C@H](C(=O)N[C@@H](CCCCN)C(=O)O)[C@@H](C)O)C(C)C)NC(=O)[C@H](C)NC(=O)[C@H](CCCNC(=N)N)NC(=O)[C@H](CCCNC(=N)N)NC1=O)C(=O)O [Compound 27, H-HAibQGTFTSDZSKYLDKRRADDFVQWLMNTK-OH]
7 | > 11.00 | > 11.00 | CCCCCCCCCCCCCCCCCC(=O)N[C@@H](CCC(=O)NCCOCCOCC(=O)NCCOCCOCC(=O)NCCCC[C@H](NC(=O)[C@H](CC(=O)O)NC(=O)[C@H](CO)NC(=O)[C@@H](NC(=O)[C@H](Cc1ccccc1)NC(=O)[C@@H](NC(=O)CNC(=O)[C@H](CCC(N)=O)NC(=O)C(C)(C)NC(=O)[C@@H](N)Cc1c[nH]cn1)[C@@H](C)O)[C@@H](C)O)C(=O)N[C@@H](CO)C(=O)N[C@@H](CCCCN)C(=O)N[C@@H](Cc1ccc(O)cc1)C(=O)N[C@@H](CC(C)C)C(=O)N[C@@H](CC(=O)O)C(=O)N[C@H]1CCCCNC(=O)C2CCN(CC2)C(=O)CC[C@@H](C(=O)N[C@@H](CC(=O)O)C(=O)N[C@@H](Cc2ccccc2)C(=O)N[C@H](C(=O)N[C@@H](CCC(N)=O)C(=O)N[C@@H](Cc2c[nH]c3ccccc23)C(=O)N[C@@H](CC(C)C)C(=O)N[C@@H](CCSC)C(=O)N[C@@H](CC(N)=O)C(=O)N[C@H](C(=O)N[C@@H](CCCCN)C(=O)O)[C@@H](C)O)C(C)C)NC(=O)[C@H](C)NC(=O)[C@H](CCCNC(=N)N)NC(=O)[C@H](CCCNC(=N)N)NC1=O)C(=O)O [Compound 32, H-HA1 bQGTFTSDZSKYLDKRRAEDFVQWLMNTK-OH]
8 | > 11.00 | > 11.00 | CCCCCCCCCCCCCCCCCC(=O)N[C@@H](CCC(=O)NCCOCCOCC(=O)NCCOCCOCC(=O)NCCCC[C@H](NC(=O)[C@H](CC(=O)O)NC(=O)[C@H](CO)NC(=O)[C@@H](NC(=O)[C@H](Cc1ccccc1)NC(=O)[C@@H](NC(=O)CNC(=O)[C@H](CCC(N)=O)NC(=O)C(C)(C)NC(=O)[C@@H](N)Cc1c[nH]cn1)[C@@H](C)O)[C@@H](C)O)C(=O)N[C@@H](CO)C(=O)N[C@@H](CCCCN)C(=O)N[C@@H](Cc1ccc(O)cc1)C(=O)N[C@@H](CC(C)C)C(=O)N[C@@H](CC(=O)O)C(=O)NC(C)(C)C(=O)N[C@@H](CCCNC(=N)N)C(=O)N[C@@H](CCCNC(=N)N)C(=O)N[C@@H](C)C(=O)N[C@@H](CCC(N)=O)C(=O)N[C@@H](CC(=O)O)C(=O)N[C@@H](Cc1ccccc1)C(=O)N[C@H](C(=O)N[C@@H](CCC(N)=O)C(=O)N[C@@H](Cc1c[nH]c2ccccc12)C(=O)N[C@@H](CC(C)C)C(=O)N[C@@H](CC(C)C)C(=O)N[C@@H](CCCNC(=N)N)C(=O)N[C@@H](C)C(=O)N[C@@H](CCCCN)C(=O)O)C(C)C)C(=O)O [Compound 12]
9 | > 11.00 | > 11.00 | CCCCCCCCCCCCCCCCCC(=O)N[C@@H](CCC(=O)NCCOCCOCC(=O)NCCOCCOCC(=O)NCCCC[C@H](NC(=O)[C@H](CC(=O)O)NC(=O)[C@H](CO)NC(=O)[C@@H](NC(=O)[C@H](Cc1ccccc1)NC(=O)[C@@H](NC(=O)CNC(=O)[C@H](CCC(N)=O)NC(=O)C(C)(C)NC(=O)[C@@H](N)Cc1c[nH]cn1)[C@@H](C)O)[C@@H](C)O)C(=O)N[C@@H](CO)C(=O)N[C@@H](CCCCN)C(=O)N[C@@H](Cc1ccc(O)cc1)C(=O)N[C@@H](CC(C)C)C(=O)N[C@@H](CC(=O)O)C(=O)N[C@H]1CC(=O)N[C@@H](CC(C)C)C(=O)NCCCC[C@@H](C(=O)N[C@@H](CC(=O)O)C(=O)N[C@@H](Cc2ccccc2)C(=O)N[C@H](C(=O)N[C@@H](CCC(N)=O)C(=O)N[C@@H](Cc2c[nH]c3ccccc23)C(=O)N[C@@H](CC(C)C)C(=O)N[C@@H](CCSC)C(=O)N[C@@H](CC(N)=O)C(=O)N[C@H](C(=O)N[C@@H](CCCCN)C(=O)O)[C@@H](C)O)C(C)C)NC(=O)[C@H](C)NC(=O)[C@H](CCCNC(=N)N)NC(=O)[C@H](CCCNC(=N)N)NC1=O)C(=O)O [Compound 38, H-HAibQGTFTSDZSKYLDDRRAKDFVQWLMNTK-OH]
